Legend:
[1] = test system: Escherichia coli DH5α; test: Antibiotic susceptibility (broth dilution in Muller-Hinton broth); type: cell-based
Experimental: (§1) Antibiotic susceptibility. The susceptibilities of bacterial strains to gentamicin (Sigma) were determined by broth dilution method in Muller-Hinton broth (Kadurugamuwa, J. L. et al, 1993 Antimicrob. Agents Chemother. 37:715-721). The MICs for PAO1, 8803, D2C, and DH5α were 2, 128 (10), 1.0, and 1.0 μg/ml, respectively.

[2] = test system: Staphylococcus aureus Newman D2C; test: as above; type: cell-based
Experimental: as §1

[3] = test system: P. aeruginosa PAO1; test: Bactericidal activity (viable counting 0-5 h); type: cell-based, Pseudomonas aeruginosa; conditions: MVs 100 μg protein/ml, gentamicin 2.5×MIC, FIG. 23(c)
Experimental: (§2) Bacteriolytic activity. […] Exponential growth phase cultures grown in TSB were diluted in fresh TSB to produce a bacterial suspension of 10^8 CFU/ml.

[4] = test system: P. aeruginosa 8803; test: Bactericidal activity (viable counting 0-5 h); type: cell-based, Pseudomonas aeruginosa; conditions: MVs 100 μg protein/ml, gentamicin 100 μg/ml, FIG. 23(d)
Experimental: as §2

[5] = test system: intracellular S. flexneri; test: g-MV effect on intracellular S. flexneri in infected human colonic epithelial cells; type: cell-based, Shigella flexneri; conditions: FIG. 17
Experimental: Incubation of g-MVs (25 μg MV protein/25 cm^2 cover slip) with S. flexneri infected human colonic epithelial cells (10^7 CFU/25 cm^2 cover slip) (Kadurugamuwa et al, 1991 Infect. Immun. 59:3464-3471) inhibited the multiplication of intracellular bacteria by approximately 88% in the first hour of incubation (FIG. 17). […] Gentamicin could only enter these cells because it was packaged into a bilayered MV which could […] with the otherwise impermeable membrane and liberate its contents into the cytoplasm. Soluble antibiotic had no effect on growth of intracellular bacteria confirming the impermeability of eucaryotic cell membrane to the antibiotic (FIG. 17). […] The small effect of n-MVs on intracellular bacteria was presumably due to murein hydrolases in n-MVs.

[6] = test system: P. aeruginosa PAO1; test: Antibiotic susceptibility (broth dilution in Muller-Hinton broth); type: cell-based, Pseudomonas aeruginosa
Experimental: as §1

[7] = test system: P. aeruginosa 8803; test: as above; type: cell-based, Pseudomonas aeruginosa; conditions: 8803 (permeability-type gentamicin resistance)
Experimental: as §1

[8] = test system: P. aeruginosa strain H 103; test: Antibiotic susceptibility test (MIC of gentamicin by dilution in MHB); type: cell-based, Pseudomonas aeruginosa; conditions: strain H 103, dilution in MHB
Experimental: (§3) Antibiotic susceptibility test. The Minimum Inhibitory Concentrations (MICs) of gentamicin were determined by dilution in MHB. The MICs for strains H 103 and ATCC 19660 were 2 and 2.5 μg/ml, respectively.

[9] = test system: P. aeruginosa strain ATCC 19660; test: as above; type: cell-based, Pseudomonas aeruginosa; conditions: strain ATCC 19660, dilution in MHB
Experimental: as §3

## gentamicin
[1]
  MIC: 1.0 µg/mL
[2]
  MIC: 1.0 µg/mL
[3]
  loss of viability of P. aeruginosa PAO1: exquisitely sensitive
[4]
  lytic effect on P. aeruginosa 8803 culture: (almost) direct correspondence between the control culture and the culture subjected to soluble gentamicin
[5]
  effect on growth of intracellular bacteria: no effect
[6]
  MIC: 2 µg/mL
[7]
  MIC: 128 µg/mL
[8]
  Minimum Inhibitory Concentration (MIC): 2 µg/mL
[9]
  Minimum Inhibitory Concentration (MIC): 2.5 µg/mL
